In patent US8377913B2, “Vitamin D receptor activators and methods of making” (AbbVie Inc., priority 2007, dated 2013):

How the values were obtained:
[1] = system: Thrombomodulin mRNA in human coronary artery smooth muscle cells (CASMC); assay: Thrombomodulin mRNA in CASMC; type: cell-based; settings: for EC50: Homo sapiens
Procedure: (§1) Primary culture of human coronary artery smooth muscle cells (CASMC) (commercially available from Cambrex, Walkersville, Md.) were grown in smooth muscle growth medium SmGM-2 (commercially available from Lonza Bioscience) containing 5.5 mM glucose, 5% FBS, 50 μg/ml gentamicin, 50 ng/ml amphotericin-B, 5 μg/ml insulin, 2 ng/ml human recombinant fibroblast growth factor (hFGF), and 0.5 ng/ml human recombinant epidermal growth factor (hEGF) at 37° C. in a humidified 5% CO2-95% air atmosphere. Cells were grown to >80% confluence and used within five passages.
(§2) Real-time reverse transcription-PCR was performed with a MyiQ Real-Time PCR Detection System (BioRad, Hercules, Calif.). Each sample has a final volume of 25 μl containing 100 ng of cDNA, […] each of the forward and reverse PCR primers and […] of the TaqMan™ probe for the gene of interest (Applied Biosystems, Foster City, Calif.). Temperature conditions consisted of a step of 5 minutes at 95° C., followed by 40 cycles of 60° C. for 1 minute and 95° C. for 15 seconds. Data was collected during each extension phase of the PCR reaction and analyzed with the software package (BioRad, Hercules, Calif.). Threshold cycles were determined for each gene. […]

[2] = system: Human promyelocytic leukemia (HL60) cells; assay: HL-60 Differentiation; type: cell-based; settings: HL-60, 96 h, four days incubation, NBT, absorbance 570 nm
Procedure: Human promyelocytic leukemia (HL60) cells were obtained from the American Type Culture Collection (ATCC Cat. # CCL-240, Manassas, Va.). Cells were maintained in RPMI 1640 medium (commercially available from Invitrogen, Carlsbad, Calif.) containing 10% fetal bovine serum (commercially available from Invitrogen, Carlsbad, Calif.) at 37° C. with 5% CO2. Cells were passaged weekly and were not allowed to become >90% confluent. For the assay, cells were plated at 5×10^5 cells per well in 200 uL media. Test compounds were diluted in media in concentrations between 10^−6-10^−10 M and then added to the appropriate wells. Cells were then incubated for four days at 37° C. in 5% CO2 atmosphere. After incubation, media was aspirated from each well and 75 uL of NBT solution (nitroblue tetrazolinium: 200 ng/mL PMA (phorbol 12-myrystate 13-acetate) and 2 mg/ml NBT (nitroblue tetrazolium) in distilled H2O) was added to each well followed by further incubation for 2 hours at 37° C. Following incubation, 150 uL lysis buffer (225 mL dimethylformamide, 67.5 g SDS). PMA stock solution (2 mg/ml in ethanol) was added to each well and the plate was allowed to sit at room temperature for 4 hours. HL-60 cell differentiation was assayed, Effect of each compound on cell growth was examined as a function of time; absorbance in each well was measured at 570 nm.

Male, C57BL6, mice = assay: Normal Mouse Calcemia Model; type: in vivo; settings: s.c. once daily for 3 days, dose giving 1 mg/dL change in total Ca
Procedure: Male, C57BL6, mice were obtained from Jackson Laboratories. The mice were habituated for four days while maintained on a normal diet (D10001, Research Diets Inc.). Treatment was initiated with vehicle (20% ethanol/30% propylene glycol/50% water, 0.05 mL, s.c.) or test agent administered over a three log dose range. The animals were dosed once daily for 3 days. Twenty-four hours after the last dose, animals were anesthetized with ketamine/xylazine (100/18 mg/kg) and bled by cardiac puncture for measurement of PTH and other end points.
Measurement of PTH and minerals: Calcium (Ca), serum phosphorus (Pi), creatinine and BUN were measured from serum using an Abbott Aeroset® (Abbott Laboratories, Abbott Park, Ill.). Blood ionized calcium (iCa) was determined using the i-STAT® system (Abbott Laboratories, East Windsor, N.J.). Serum PTH was measured using a mouse parathyroid hormone (PTH) EIA kit obtained from ALPCO/Immutopics, Inc. (Windham, N.H.). Selected data is shown is Table 6. The graphs in FIG. 4 give an indication of dose response. Notable is that Example 1 produced an approximately 30% reduction in PTH over at least a three log dose range without a concomitant elevation of serum calcium of greater than 1 mg/dL.
Data analysis: Mean±standard error of the mean was calculated for each group. One way ANOVA followed by a Dunnett's test was used to assess differences between vehicle and drug-treated groups. *p<0.05=significance.

[3] = system: Thrombospondin mRNA in human coronary artery smooth muscle cells (CASMC); assay: Thrombospondin mRNA in CASMC; type: cell-based; settings: Homo sapiens
Procedure: as §1, §2

[4] = system: Renin mRNA in As4.1 cells; assay: Renin mRNA in As4.1 cells transfected with pcDNA-hVDR (real-time RT-PCR); type: cell-based
Procedure: As4.1 cells (ATCC, Manassas, Va.) were cultured in Dulbecco's Modified Eagle Medium DMEM (commercially available from Invitrogen, Carlsbad, Calif.) with 10% fetal bovine serum at 37° C. in a humidified 5% CO2-95% air atmosphere. C3;ells were transfected with the pcDNA-hVDR plasmid (provided by Yan Chun Li, University of Chicago) by LIPOFECTAMINE™ 2000 (Invitrogen, Carlsbad, Calif.). siRNA was transfected with the pcDNA-hVDR plasmid by LIPOFECTAMINE™ 2000 according to the manufacturer's protocol. Twenty-four hours after transfection, cells were treated with test agents.
Real-time reverse transcription-PCR was performed with a MyiQ Real-time PCR Detection System (commercially available from BioRad, Hercules, Calif.). […] TaqMan™ probes that were 5′ labeled with the reporter 6-carboxyfluorescein (FAM) and 3′ labeled with the quencher tetramethylrhodamine (TAMRA) were used and the primer and probe sets were obtained from Applied Biosystems (Foster City, Calif.). Temperature conditions consisted of a step of 5 minutes at 95° C., followed by 45 cycles of 60° C. for 1 minute and 95° C. for 15 seconds. Data was collected during each extension phase of the PCR reaction and analyzed with the accompanying software package (BioRad, Hercules, Calif.). Threshold cycles were determined for each gene.

[5] = system: PAI-1 mRNA in human coronary artery smooth muscle cells (CASMC); assay: PAI-1 mRNA in CASMC; type: cell-based; settings: Homo sapiens
Procedure: as §1, §2

[6] = system: VDR (VDRE-luciferase-reporter construct); assay: VDRE Reporter Gene Assay in HEK cells with stable expression of VDR; type: cell-based; settings: Homo sapiens, HEK293, 24 hours
Procedure: Compound activity was also assessed by looking at a Vitamin D Response Element (VDRE) reporter gene assay, Human Embryonic Kidney cells (HEK cells) with a stable expression of VDR were cultured in 96-well plates at ˜4×10^5 cells/mL (100 μL/well) in DMEM medium containing 10% fetal calf serum. Cells were transfected with 0.2 μg per well of a VDRE-luciferase-reporter construct (from Y. Li, University of Chicago) and then treated with test agents at indicated concentrations for 24 hours. The luciferase activity was then measured following the manufacturer's instructions (Promega, Madison, Wis.).

[7] = molecular target: T1, recombinant full-length human Vitamin D nuclear receptor (Homo sapiens, UniProt P11473); assay: biochemical
T1 sequence (P11473 1-427): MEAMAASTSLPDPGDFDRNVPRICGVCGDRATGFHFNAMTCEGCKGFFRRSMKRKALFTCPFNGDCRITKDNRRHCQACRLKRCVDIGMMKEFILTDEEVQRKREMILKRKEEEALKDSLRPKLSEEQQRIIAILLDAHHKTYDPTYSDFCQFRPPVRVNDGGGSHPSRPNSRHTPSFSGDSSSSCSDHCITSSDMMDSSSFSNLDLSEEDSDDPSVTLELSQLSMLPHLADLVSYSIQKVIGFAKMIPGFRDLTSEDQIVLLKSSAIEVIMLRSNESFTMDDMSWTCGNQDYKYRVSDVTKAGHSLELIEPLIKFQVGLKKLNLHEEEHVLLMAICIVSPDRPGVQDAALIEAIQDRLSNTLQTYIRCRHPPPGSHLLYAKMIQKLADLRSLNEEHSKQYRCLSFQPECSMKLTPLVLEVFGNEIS
Procedure: In vitro binding of selected compounds according to the invention to VDR was assessed using the following procedure. […] Each test compound was then serially diluted in binding buffer to concentrations appropriate for the assay, as one skilled in the art can determine.
Final assay volume was 100 uL. The filled plate was incubated overnight at 4° C. with gentle shaking. After 18 hours of incubation, 20 uL of wheat germ agglutinin-coated yttrium silicate scintillation proximity assay (SPA) beads (commercially available from Amersham Biosciences, Piscataway, N.J.; Part # RPNQ0270) resuspended in binding buffer was added to each well (200 ug/well) and the plate was incubated at room temperature for 2 hours with gentle shaking.

Compound | EC50 [1] [nM] | EC50 [2] [nM] | 1 mg/dL Δ total Ca (Male, C57BL6, mice) [µg/kg] | IC50 [3] [nM] | IC50 [4] [nM] | IC50 [5] [nM] | Thrombomodulin mRNA in CASMC EC50 [1] | EC50 [6] [nM] | IC50 [7] [nM]
C=C1/C(=C\C=C2/CCC[C@]3(C)[C@@H]([C@H](C)CCCC(C)(C)O)CC[C@@H]23)C[C@@H](O)C[C@@H]1O [Calcitriol, 1,25-dihydroxyvitamin D3, reference compound] | 1.6 | 7 | 0.026 | 19.1 | 1.6 | 0.8 |  |  | 
C=C1[C@H](O)CC(=C/C=C2\CCC[C@]3(C)[C@@H]([C@H](C)CO)CC[C@@H]23)C[C@H]1O [Example 2, (1R,3R,7E,17β)-17-[(1S)-2-hydroxy-1-methylethyl]-2-methylene-9,10-secoestra-5,7-diene-1,3-diol] |  | 162 |  | 3.7 | 0.7 | 0.03 | inactive | 52.7 | 890
C=C1[C@H](O)CC(=C/C=C2\CCC[C@]3(C)[C@@H]([C@@H](C)COC(=O)C(C)(C)C)CC[C@@H]23)C[C@H]1O [Example 3, (2R)-2-[(1R,3R,7E,17β)-1,3-dihydroxy-2-methylene-9,10-secoestra-5,7-dien-17-yl]propyl pivalate] | 39.9 | 3.9 |  | 0.002 | 0.4 | 0.003 |  | 0.9 | 1330
C=C1[C@H](O)CC(=C/C=C2\CCC[C@]3(C)[C@@H]([C@H](C)COC(=O)C(C)(C)CC)CC[C@@H]23)C[C@H]1O [Example 4, (2S)-2-[(1R,3R,7E,17β)-1,3-dihydroxy-2-methylene-9,10-secoestra-5,7-dien-17-yl]propyl 2,2-dimethylbutanoate] | 84.7 | 0.7 |  | 0.001 | 3.4 | 0.02 |  | 1.3 | 62.4
C=C1[C@H](O)CC(=C/C=C2\CCC[C@]3(C)[C@@H]([C@H](C)COC(=O)NC(C)(C)C)CC[C@@H]23)C[C@H]1O [Example 5, (2S)-2-[(1R,3R,7E,17β)-1,3-dihydroxy-2-methylene-9,10-secoestra-5,7-dien-17-yl]propyl tert-butylcarbamate] | 5.6 |  |  | 0.001 | 2.4 | 0.002 |  | 0.3 | 0.1
C[C@H](/C=C/[C@H](C)C(C)(C)O)[C@H]1CC[C@H]2/C(=C/C=C3C[C@@H](O)C[C@H](O)C3)CCC[C@]12C [Paricalcitol, paricalcitol, reference compound] | 1.5 | 16 | 0.286 | 0.2 | 0.8 | 0.5 |  | 5.9 | 14.6
